Results from patent US3981999A, “Fish disease treatment” (Dainippon Pharmaceutical Co., Ltd., priority 1973, dated 1976).

Experiments:
[1] = test system: Aeromonas liquefacieus Y-62; assay: Oral effect against Aeromonas infection in goldfish; type: in vivo; settings: for Percent survival: 5 days; for Number of surviving fish after 1 day / Number of surviving fish after 2 days / Number of surviving fish after 3 days / Number of surviving fish after 4 days / Number of surviving fish after 5 days: day 0: PA 10, others 5 fish
Description: Goldfish each weighing about 6 - 7 g were given a fish food containing each of the test compounds. After 30 minutes, the fish were infected intramuscularly with Aeromonas liquefacieus Y-62 (about 10^7 germs/fish) under ether anesthesia. […] In the same manner, the control group was given the same fish food without the test compound.

[2] = test system: Aeromonas liquefaciens Y-62; assay: Bathing effect against Aeromonas infection in goldfish; type: in vivo; settings: for Percent survival: 5 days; for Number of survival after 1 day / Number of survival after 2 days / Number of survival after 3 days / Number of survival after 4 days / Number of survival after 5 days: day 0: 6 fish
Description: Goldfish each weighing about 8 g were infected intramuscularly with Aeromonas liquefaciens Y-62 (10^7 germs/fish) under ether anesthesia. The fish were grouped and each group was placed in 6 liters of fresh water (23° to 27°C.) containing PA in the amount indicated in Table 3.
Then, observation was made for the following 5 days. In the same manner, the control group was placed in 6 liters of fresh water without any test compound incorporated in it.

[3] = 0.03% in diet (PA 2.5, AT-1493 2.5, AT-1557 2.2 mg/kg)
[4] = 0.1% in diet (PA 6.1, AT-1493 7.5, AT-1557 7.6, AT-1475 7.5 mg/kg)

Structure (SMILES): CCn1cc(C(=O)O)c(=O)c2cnc(N3CCCC3)nc21 [PA, 5,8-dihydro-2-pyrrolidino-8-ethyl-5-oxopyrido[2,3-d]pyrimidine-6-carboxylic acid]
- Percent survival [1, 3]: 60%
- Number of surviving fish after 1 day [1, 3]: 10
- Number of surviving fish after 2 days [1, 3]: 9
- Number of surviving fish after 3 days [1, 3]: 7
- Number of surviving fish after 4 days [1, 3]: 6
- Number of surviving fish after 5 days [1, 3]: 6
- Percent survival [1, 4]: 100%
- Number of surviving fish after 1 day [1, 4]: 10
- Number of surviving fish after 2 days [1, 4]: 10
- Number of surviving fish after 3 days [1, 4]: 10
- Number of surviving fish after 4 days [1, 4]: 10
- Number of surviving fish after 5 days [1, 4]: 10
- Percent survival ([2]; bathing conc. 0.5 μg/ml): 100%
- Number of survival after 1 day ([2]; bathing conc. 0.5 μg/ml): 6
- Number of survival after 2 days ([2]; bathing conc. 0.5 μg/ml): 6
- Number of survival after 3 days ([2]; bathing conc. 0.5 μg/ml): 6
- Number of survival after 4 days ([2]; bathing conc. 0.5 μg/ml): 6
- Number of survival after 5 days ([2]; bathing conc. 0.5 μg/ml): 6
- Percent survival ([2]; bathing conc. 1 μg/ml): 100%
- Number of survival after 1 day ([2]; bathing conc. 1 μg/ml): 6
- Number of survival after 2 days ([2]; bathing conc. 1 μg/ml): 6
- Number of survival after 3 days ([2]; bathing conc. 1 μg/ml): 6
- Number of survival after 4 days ([2]; bathing conc. 1 μg/ml): 6
- Number of survival after 5 days ([2]; bathing conc. 1 μg/ml): 6
